Test results: patent US9464063B2, “Benzo [B] [1,4] oxazin derivatives as calcium sensing receptor modulators” (LUPIN ATLANTIS HOLDINGS SA, priority 2011, dated 2016)
Where a name gives a salt, the structure may show the parent alone.

Each molecule was assayed against T1, Calcium sensing receptor (hCaSR) (Homo sapiens, UniProt P41180) (assay: In-vitro assay of calcimimetics through modulation of calcium sensing receptor: increase in intracellular calcium [Ca2+]i, FLIPR). Conditions: stably transfected HEK293 cells expressing hCaSR; Fluo4NW dye; 0.3 mM CaCl2; 8-point assay; read-out: EC50 Range.
T1 construct: expressed in transfected cells
T1 sequence (P41180 20-1078): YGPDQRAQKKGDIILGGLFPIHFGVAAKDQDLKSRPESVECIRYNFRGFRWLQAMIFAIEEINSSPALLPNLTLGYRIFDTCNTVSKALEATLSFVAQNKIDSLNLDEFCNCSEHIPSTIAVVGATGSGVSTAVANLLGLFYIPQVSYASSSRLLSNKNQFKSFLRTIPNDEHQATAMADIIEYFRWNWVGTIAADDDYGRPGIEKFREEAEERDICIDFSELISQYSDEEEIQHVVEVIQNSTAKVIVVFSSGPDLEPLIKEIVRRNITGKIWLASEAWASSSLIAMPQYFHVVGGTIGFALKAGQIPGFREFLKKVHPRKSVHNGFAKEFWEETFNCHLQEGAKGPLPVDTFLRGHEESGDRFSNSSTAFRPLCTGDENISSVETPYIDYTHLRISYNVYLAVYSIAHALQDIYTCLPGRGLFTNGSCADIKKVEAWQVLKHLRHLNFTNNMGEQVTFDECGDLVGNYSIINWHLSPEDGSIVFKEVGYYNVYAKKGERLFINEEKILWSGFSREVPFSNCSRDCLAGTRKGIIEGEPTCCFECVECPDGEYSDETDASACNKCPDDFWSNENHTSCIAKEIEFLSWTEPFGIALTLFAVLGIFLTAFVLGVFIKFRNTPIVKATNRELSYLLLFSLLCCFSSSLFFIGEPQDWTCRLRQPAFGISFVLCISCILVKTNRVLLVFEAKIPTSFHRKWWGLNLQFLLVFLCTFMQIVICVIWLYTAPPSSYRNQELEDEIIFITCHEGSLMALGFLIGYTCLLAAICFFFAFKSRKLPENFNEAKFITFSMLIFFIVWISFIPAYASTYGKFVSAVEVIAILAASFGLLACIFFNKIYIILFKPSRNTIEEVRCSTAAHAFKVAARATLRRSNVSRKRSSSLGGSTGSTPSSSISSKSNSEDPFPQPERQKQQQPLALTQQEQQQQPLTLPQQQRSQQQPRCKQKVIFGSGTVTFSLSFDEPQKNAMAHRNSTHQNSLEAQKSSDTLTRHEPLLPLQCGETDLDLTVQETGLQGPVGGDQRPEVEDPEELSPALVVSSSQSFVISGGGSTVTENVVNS
Type: cell-based
Method: In-Vitro Assay Method of Calcimemtics Through Modulation of Calcium Sensing Receptor (CaSR):
The ability of the compounds to modulate Calcium sensing receptor is determined by measuring an increase in intracellular calcium [Ca^2+]i. Stably transfected HEK293 cells expressing hCaSR_pTriEx-3 hygro vector are developed. Cells are grown overnight on a 96-well plate to 80% confluency in Ham's F12 containing 20% FBS at 37° C., 5% CO2. Subsequently, cells are washed extensively with 20 mM HEPES buffer containing 126 mM NaCl, 1 mM MgCl2 and 4 mM KCl to remove serum components that might interfere with the assay. Cells are loaded with calcium sensing Fluo4NW dye in HEPES base buffer containing 0.1% BSA and 1 mg/ml glucose for 30 minutes to measure changes in intracellular calcium. The activities of the compounds are measured in FLIPR using 0.3 mM CaCl2 in 20 mM HEPES base buffer. The effectiveness of the compound to modulate receptor activity is determined by calculating the EC50 responses for that compound in an 8-point assay and plotted using GraphPad Prism 5.

| EC50 [nM] | Structure (SMILES) |
| --- | --- |
| 20 to 50 | C[C@@H](NCC1CN(c2cccc(OCC(=O)O)c2)c2ccccc2O1)c1cccc2ccccc12 (stereo partly drawn) [Example 50, 2-(3-(2-((((R)-1-(naphthalen-1-yl)ethyl)amino)methyl)-2H-benzo[b] [1,4]oxazin-4(3H)-yl)phenoxy)acetic acid hydrochloride] |
| 50 to 200 | COc1cc(C(=O)O)cc(N2CC(CN[C@H](C)c3cccc4ccccc34)Oc3ccccc32)c1 (stereo partly drawn) [Example 54, 3-Methoxy-5-(2-((((R)-1-(naphthalen-1-yl)ethyl)amino)methyl)-2H-benzo [b][1,4]oxazin-4(3H)-yl) benzoic acid hydrochloride] |
| 50 to 200 | C[C@@H](NCC1CN(c2cccc(CC(=O)O)c2)c2ccccc2O1)c1cccc2ccccc12 (stereo partly drawn) [Example 69, 2-(3-(2-((((R)-1-(Naphthalen-1-yl)ethyl)amino)methyl)-2H-benzo [b][1,4]oxazin-4(3H)-yl)phenyl)acetic acid hydrochloride] |
| 50 to 200 | C[C@@H](NCC1CN(c2cc(F)cc(C(=O)O)c2)c2ccccc2O1)c1cccc2ccccc12 (stereo partly drawn) [Example 72, 3-Fluoro-5-(2-((((R)-1-(naphthalen-1-yl)ethyl)amino)methyl)-2H-benzo [b][1,4]oxazin-4(3H)-yl) benzoic acid hydrochloride] |
| 20 to 50 | Cc1ccc(N2CC(CN[C@H](C)c3cccc4ccccc34)Oc3cc(F)ccc32)cc1C(=O)O (stereo partly drawn) [Example 84, 5-(7-Fluoro-2-((((R)-1-(naphthalen-1-yl)ethyl)amino)methyl)-2H-benzo[b][1,4]oxazin-4(3H)-yl)-2-methyl benzoic acid hydrochloride] |
| 50 to 200 | Cc1cc(N2CC(CCN[C@H](C)c3cccc4ccccc34)Oc3ccccc32)ccc1C(=O)O (stereo partly drawn) [Example 134a, 2-Melhyl-4-(2-(2-(((R-1-(naphthalen-1-yl)ethyl)amino)ethyl)-2H-benzo[b] [1,4]oxazin-4(3H)-yl)benzoic acid hydrochloride] |
| < 20 | C[C@@H](NCCC1CN(c2ccc(C(F)(F)F)c(C(=O)O)c2)c2ccccc2O1)c1cccc2ccccc12 (stereo partly drawn) [Example 135a, 5-(2-(2-(((R)-1-(Naphthalen-1-yl)ethyl)amino)ethyl)-2H-benzo [b][1,4]oxazin-4(3H)-yl)-2-(trifluoromethyl) benzoic acid hydrochloride] |
| 50 to 200 | CC(C)c1ccc(N2CC(CCN[C@H](C)c3cccc4ccccc34)Oc3ccccc32)cc1C(=O)O (stereo partly drawn) [Example 137a, 2-Isopropyl-5-(2-(2-(((R)-1-(naphthalen-1-yl)ethyl)amino)ethyl)-2H-benzo[b] [1,4]oxazin-4(3H)-yl) benzoic acid hydrochloride] |
| < 20 | C[C@@H](NCCC1CN(c2cccc(OCC(=O)O)c2)c2ccccc2O1)c1cccc2ccccc12 (stereo partly drawn) [Example 138a, 2-(3-(2-(2-(((R)-1-(Naphthalen-1-yl)ethyl)amino)ethyl)-2H-benzo[b][1,4]oxazin-4(3H)-yl)phenoxy)aceticacid hydrochloride] |
| < 20 | C[C@@H](NCCC1CN(c2ccc(CCC(=O)O)cc2)c2ccccc2O1)c1cccc2ccccc12 (stereo partly drawn) [Example 139a, 3-(4-(2-(2-(((R)-1-(Naphlhalen-1-yl)ethyl)amino)ethyl)-2H-benzo [b][1,4]oxazin-4(3H)-yl)phenyl)propanoic acid hydrochloride] |
| < 20 | COc1ccc(N2CC(CCN[C@H](C)c3cccc4ccccc34)Oc3ccccc32)cc1C(=O)O (stereo partly drawn) [Example 141a, 2-Methoxy-5-(2-(2-(((R)-1-(naphthalen-1-yl)ethyl)amino)ethyl)-2H-benzo[b] [1,4]oxazin-4(3H)-yl) benzoic acid hydrochloride] |
| 50 to 200 | C[C@@H](NCCC1CN(c2ccc(CC(=O)O)cc2)c2ccccc2O1)c1cccc2ccccc12 (stereo partly drawn) [Example 143a, 2-(4-(2-(2-(((R)-1-(Naphthalen-1-yl)ethyl)amino)ethyl)-2H-benzo[b][1,4]oxazin-4(3H)-yl)phenyl) acetic acid hydrochloride] |
| < 20 | Cc1cc(N2CC(CCN[C@H](C)c3cccc4ccccc34)Oc3ccccc32)ccc1OCC(=O)O (stereo partly drawn) [Example 144a, 2-(2-Methyl-4-(2-(2-(((R)-1-(naphlhalen-1-yl)ethyl)amino)ethyl)-2H-benzo[b] [1,4]oxazin-4(3H)-yl)phenoxy)aceticacid hydrochloride] |
| < 20 | Cc1ccc(N2CC(CCN[C@H](C)c3cccc4ccccc34)Oc3ccccc32)c(C)c1C(=O)O (stereo partly drawn) [Example 148a, 2,6-Dimethyl-3-(2-(2-(((R)-1-(naphthalen-1-yl)ethyl)amino)ethyl)-2H-benzo[b] [1,4]oxazin-4(3H)-yl) benzoic acid hydrochloride] |
| < 20 | Cc1ccc(CN2CC(CCN[C@H](C)c3cccc4ccccc34)Oc3ccccc32)cc1C(=O)O (stereo partly drawn) [Example 177a, 2-Methyl-5-((2-(2-(((R)-1-(naphthalen-1-yl)ethyl)amino)ethyl)-2H-benzo[b][1,4]oxazin-4(3H)-yl)methyl)benzoic acid hydrochloride] |
